Measurements reported in paper PMC5979539 (International Journal of Molecular Sciences, 2018).

T1: PDC-109 (Bos taurus, UniProt P02784)
T1 construct: PDC-109, purified from bull seminal plasma, was kindly donated by J.J. Calvete; tissue gift of J.J. Calvete; host or cells: bull seminal plasma
T1 sequence (P02784 26-134): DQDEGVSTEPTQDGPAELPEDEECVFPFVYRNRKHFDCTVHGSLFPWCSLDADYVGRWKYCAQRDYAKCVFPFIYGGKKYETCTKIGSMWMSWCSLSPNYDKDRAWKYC

B1: PDC-109 (BSP-A1/-A2), main protein of bovine seminal plasma (natural protein, UniProt P02784 26-134, looked up)
chain: T1 sequence (P02784 26-134)
modifications: mixture of the glycosylated (O-linked trisaccharide, Neu5Ac-Hex-HexNAc) and non-glycosylated forms
notes: Native preparation; two closely spaced bands on SDS-PAGE (glycosylated and non-glycosylated forms); The same preparation was both immobilised and flowed over the chip; also called BSP-A2; source: purified from bull seminal plasma (donated by J.J. Calvete)

Key:
PDC-109 = biological target: T1, PDC-109; experiment: SPR binding profile and kinetics of PDC-109 on immobilized neo-glycoprobes; parameters: species or system bovine; details: for derived association (KA) constant / kd / ka: immobilized glycoprobe, PDC-109 6.25 to 100 μM, HBS-P pH 7.4, 25 °C, 1:1 Langmuir model; for kd / ka: 3 to 6 repeat experiments; for ka: 30 μL/min, CV exceeding 50% in particular cases; for binding to PDC-109 in words: immobilized probe, PDC-109 flown over
Description: While the lipid selectivity and kinetics of PDC-109 has been characterized in considerable detail, its interaction with carbohydrate epitopes remains largely uncharted, despite its potential role in sperm reservoir formation in the female genital tract. We have therefore performed SPR experiments with PDC-109 and the most relevant mammalian glycotopes, particularly those containing Fuc epitopes. Once SPR sensor chips were functionalized with the different synthetic glycoprobes and evaluated with specific lectins (Section 2.1.2) they were used to characterize both qualitatively and quantitatively the interaction of PDC-109. For kinetic analysis, several concentrations in the 6.25 to 100 μM range were analyzed and a 1:1 Langmuir binding model was chosen for sensorgram fitting.
Data dispersion was attributable to the unusual sensorgrams observed, reflecting a complex binding event, particularly in the association phase of PDC-109. […] In a conventional, straightforward binding event, the response—i.e., the signal rise over time, reflecting protein binding to the sensor surface—reaches a constant value once equilibrium is established, and remains so until the protein solution passed over the sensor chip is replaced with buffer, giving way to the spontaneous dissociation process and subsequent surface regeneration.
Binding experiments were performed at 25 °C and 30 μL/min flow rate. […] Sensor surface was regenerated with a 60 μL-injection of specific carbohydrate (10 mM lac, 500 mM αMe-Man, 0.5 M αMe-Fuc, and 10 mM Sia) followed by a 60 μL-injection of NaCl 1 M.

Con A = Con A (Canavalia ensiformis, UniProt P02866); details: for ka1: SPR BIAcore 3000, glycoprobe immobilized on CM5 chip, HBS-P pH 7.4 + CaCl2 5 mM, MnCl2 1 mM; for ka1 / kd1 / ka2 / kd2: Con A 2.5-80 nM, bivalent model; for ka1 / kd1: first binding event; for KA1 / kd1 / ka2 / kd2: SPR; for KA1: affinity constant of first event, KA1 = ka1/kd1; for kd1 / ka2 / kd2: immobilized glycoprobe; for ka2 / kd2: second binding event
Protocol: Subsequently, glycoprobes displaying mannobioses only differing in their glycosidic linkage (Man-α1,2-Man, Man-α1,3-Man and Man-α1,6-Man) were immobilized on a sensor chip and their interaction with concanavalin A (Con A) was studied. Con A is a relatively complex lectin, organized as a β-barrel-like tetramer at pH > 7, each dimer subunit (D2 symmetry) with two CRDs situated on opposing faces of the protein. Sensorgrams of different Con A concentrations were recorded and kinetic constants determined by simultaneously fitting the experimental curves to a bivalent kinetic model (Figure 1). This model allows the first and second binding events to be separately described by two sets of rate constants (Table 2).
All SPR experiments were performed in a BIAcore 3000 instrument (GE Healthcare, Uppsala, Sweden) using carboxymethyl-functionalized CM5 or C1 sensor chips and HBS-P (0.01 M HEPES pH 7.4; 0.15 M NaCl; 0.005% v/v surfactant P20) as running buffer, supplemented when necessary with CaCl2 (5 mM) and MnCl2 (1 mM) or other competitive reagents/adjuvants such as bovine serum albumin (BSA), carboxymethyldextran (CMD) or polivinylpirrolidone (PVP). SPR sensorgram analysis and curve fitting were done with the BIAevaluation 4.1.1 sofware package (GE Healthcare, Uppsala, Sweden). In all experiments, specific binding responses were obtained by subtracting from each channel the reference channel response. Moreover, in most cases a double referencing was applied (i.e., reference Fc1 channel plus an internal reference standard, namely buffer injection subtraction).
For all immobilizations, the carboxyl functionalities of the CM5 (or C1) sensor chip surfaces were activated by injecting a mixture of 0.05 M NHS and 0.2 M EDC (1:1 v/v; 50 µL) at 5 µL/min. Then, glycopeptide solutions were passed at 1–2 mg/mL in 10 mM NaOAc for approximately 12 min over the activated surface. For immobilization, pH 4 or pH 6 conditions were used, as required. In the specific case of PDC-109, protein solution was passed at 0.05 µg/µL in 10 mM NaOAc pH 4 over the activated surface. Afterwards, unreacted groups on all chip surfaces were blocked with ethanolamine-HCl (1 M; pH 8.5; 60 µL) or H2O (60 µL). The difference, in resonance units (RU), between readings after surface activation and final response was converted into amount of immobilized glycopeptide (0.981 RU~1 pg/mm^2 for glycopeptides, 1 RU = 1 pg/mm^2 for proteins; see legend Table 6).
All kinetic measurements were carried out by running a manually programmed sequence of binding experiments using several protein range concentrations and two flow rates. Regeneration of the sensor surface was accomplished in a specific-manner by injecting the complementary carbohydrate (10 mM lac, 100–500 mM αMe-Man, 0.5 M αMe-Fuc or L-Fuc, 0.5 M GlcNAc, 0.5 M Glc, and 10 mM Sia). Alternatively, other procedures such as glycoprotein solutions (e.g., fetuin at 2–5 g/L), low pH-buffers (e.g., 10 mM glycine pH 1.5–2.5), high salt (e.g., 1 M NaCl), high pH or specific chemicals were also used to break the interaction.
For the evaluation of the sensor chips, binding experiments and kinetic studies were carried out with the various glycoprobes and specific well-characterized lectins (ECA, Con A, LTA, UEA-I, MAA, and SNA). Several concentrations of each lectin were prepared by serial 2/3-fold dilutions of the most concentrated sample in running buffer supplemented with CaCl2 (5 mM) and MnCl2 (1 mM). Thus, concentrations varied from 66 nM to 2.5 µM for ECA; from 2.5 to 80 nM for Con A; from 31.25 nM to 1 µM for LTA and UEA-I; from 250 nM to 1.9 µM for MAA and from 74 to 563 nM for SNA. Analyses were performed at 20 µL/min and kinetic studies at 10 and 40 μL/min. After lectin injection, the sample solution was replaced by running buffer and the dissociation phase was monitored for 3–6 min.

MAA = experiment: SPR binding and kinetics of MAA on immobilized sialic acid glycoprobes; parameters: species or system Maackia amurensis
SNA = SNA (Sambucus nigra, UniProt Q41358)
Chain of SNA (Q41358 309-570 limits assumed): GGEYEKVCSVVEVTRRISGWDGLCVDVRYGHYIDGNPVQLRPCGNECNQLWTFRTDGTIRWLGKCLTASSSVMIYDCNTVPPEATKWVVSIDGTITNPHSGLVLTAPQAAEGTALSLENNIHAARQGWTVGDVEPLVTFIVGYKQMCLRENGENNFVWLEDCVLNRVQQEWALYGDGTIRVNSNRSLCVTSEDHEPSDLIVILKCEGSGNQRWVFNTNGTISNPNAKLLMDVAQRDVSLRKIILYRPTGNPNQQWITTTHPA
Chain of SNA (Q41358 29-290 partner limits assumed): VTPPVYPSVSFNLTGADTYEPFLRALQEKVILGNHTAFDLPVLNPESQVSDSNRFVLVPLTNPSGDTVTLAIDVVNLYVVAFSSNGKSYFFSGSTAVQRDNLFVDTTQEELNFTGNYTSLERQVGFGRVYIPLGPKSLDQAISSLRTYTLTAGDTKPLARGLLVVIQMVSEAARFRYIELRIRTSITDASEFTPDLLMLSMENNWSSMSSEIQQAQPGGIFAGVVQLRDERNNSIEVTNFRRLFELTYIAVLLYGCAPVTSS

[1] = biological target: the molecule itself; experiment: SPR; PDC-109 immobilised on a CM5 chip (1645 RU, 10 mM NaOAc pH 4); 50 µM PDC-109 passed over at 20 µL/min; regeneration with 1 M NaCl; two replicates

Molecule | derived association (KA) constant (PDC-109) [M⁻¹] | kd (PDC-109) [s⁻¹] | ka (PDC-109) [M⁻¹ s⁻¹] | also measured
Fuc-α1,3-GlcNAc-Aoa(m)-GFKKG [neo-glycoprobe: Fuc-α1,3-GlcNAc oxime-ligated to the peptide module N[Me]-O-Aoa-GFKKG] | 237000 | 0.00165 | 763 | 
Fuc-α1,4-GlcNAc-Aoa(m)-GFKKG [neo-glycoprobe: Fuc-α1,4-GlcNAc oxime-ligated to the peptide module N[Me]-O-Aoa-GFKKG] |  | 8.83e-05 | 2910 | binding to PDC-109 in words (PDC-109): highest binding affinity
Fuc-α1,6-GlcNAc-Aoa(m)-GFKKG [neo-glycoprobe: Fuc-α1,6-GlcNAc oxime-ligated to the peptide module N[Me]-O-Aoa-GFKKG] | 73100 | 0.00345 | 645 | 
Gal-β1,3-GlcNAc-Aoa(m)-GFKKG [neo-glycoprobe: Gal-β1,3-GlcNAc oxime-ligated to the peptide module N[Me]-O-Aoa-GFKKG] | 17000 | 0.00756 | 128 | 
Gal-β1,4-GlcNAc-Aoa(m)-GFKKG [neo-glycoprobe: Gal-β1,4-GlcNAc oxime-ligated to the peptide module N[Me]-O-Aoa-GFKKG] | 10000 | 0.0086 | 86.2 | 
Gal-β1,6-GlcNAc-Aoa(m)-GFKKG [neo-glycoprobe: Gal-β1,6-GlcNAc oxime-ligated to the peptide module N[Me]-O-Aoa-GFKKG] | 22700 | 0.0208 | 472 | 
Man-α1,2-Man-Aoa(m)-GFKKG | 78700 | 0.013 | 1020 | ka1 (Con A): 16800 M⁻¹ s⁻¹; KA1 (Con A): 126000 M⁻¹; kd1 (Con A): 0.133 s⁻¹; ka2 (Con A): 2.88 × 10^−2 RU^−1 s^−1; kd2 (Con A): 0.0706 s⁻¹
Man-α1,3-Man-Aoa(m)-GFKKG | 87700 | 0.0044 | 386 | ka1 (Con A): 22800 M⁻¹ s⁻¹; KA1 (Con A): 345000 M⁻¹; kd1 (Con A): 0.0661 s⁻¹; ka2 (Con A): 3.78 × 10^−3 RU^−1 s^−1; kd2 (Con A): 0.0629 s⁻¹
Man-α1,6-Man-Aoa(m)-GFKKG | 23800 | 0.0173 | 410 | ka1 (Con A): 8910 M⁻¹ s⁻¹; KA1 (Con A): 308000 M⁻¹; kd1 (Con A): 0.0289 s⁻¹; ka2 (Con A): 7.15 × 10^−4 RU^−1 s^−1; kd2 (Con A): 0.019 s⁻¹
N[Me]-O-Aoa-GFKKG-amide [peptide module for oxime ligation] |  |  |  | binding to PDC-109 in words (PDC-109): undesirable, non-specific binding
Neu5Ac-α2,3-Gal-β1,4-GlcNAc-N[Me]-O-Aoa-GFKKG-amide [Neu5Ac-α2,3-Gal-β1,4-GlcNAc-Aoa(m)-GFKKG, neo-glycoprobe: Neu5Ac-α2,3-Gal-β1,4-GlcNAc oxime-ligated to the peptide module N[Me]-O-Aoa-GFKKG] | 12400 | 0.00477 | 99.9 | carbohydrate specificity of MAA in words (MAA; SPR binding responses on sialic acid glycoprobe chip): recognized only; ka (MAA; SPR, immobilized glycoprobe, MAA 250 nM to 1.9 μM, HBS-P pH 7.4 + CaCl2 5 mM, MnCl2 1 mM, 1:1 Langmuir model): 5.55 × 10^3 M^−^1 s^−^1; KA (MAA; SPR, immobilized glycoprobe, MAA 250 nM to 1.9 μM, 1:1 Langmuir model): 9.12 × 10^5 M^−^1
Neu5Ac-α2,3/6-Gal-β1,4-Glc-N[Me]-O-Aoa-GFKKG-amide [Neu5Ac-α2,3/6-Gal-β1,4-Glc-Aoa(m)-GFKKG, neo-glycoprobe: Neu5Ac-α2,3/6-Gal-β1,4-Glc oxime-ligated to the peptide module N[Me]-O-Aoa-GFKKG] | 27700 | 0.0081 | 2120 | 
Neu5Ac-α2,6-Gal-β1,4-GlcNAc-N[Me]-O-Aoa-GFKKG-amide [Neu5Ac-α2,6-Gal-β1,4-GlcNAc-Aoa(m)-GFKKG] | 166000 | 0.00253 | 1880 | binding to PDC-109 in words (PDC-109): favored interaction; KA (SNA): 6.27 × 10^6 M^−^1; carbohydrate specificity of SNA in words (SNA): marked preference; ka (SNA; pH 7.4): 1.02 × 10^4 M^−^1 s^−^1
B1 |  |  |  | binding result [1]: binds
